Test results reported in patent US20230263808A1 (UNIVERSITY OF FLORIDA RESEARCH FOUNDATION, INCORPORATED, priority 2020, published 2023).
“Also recorded” adds a separate entry of the source.

Experiments:
C2C12 myoblasts = experiment: Mitochondrial potential, high-content imaging with MitoTracker dye; assay type: cell-based, mouse
Experimental: (§1) A) C2C12 myotubes were assayed for chymotrypsin-like proteasomal activity. […] C) Quantitation of the ICW in panel B. D) ICW for surface expression of Glut4 on L6 myotubes. E) ICW for insulin-induced incorporation of puromycin into C2C12 myotube surface proteins. F-G) High-content imaging and analysis of C2C12 myoblasts stained with a Mitotracker dye. H) Assay reproducibility from screening 22 compounds on two separate occasions. The Pearson correlation coefficient, r, and its associated p-value is indicated.
A) Each dot represents the effects of a compound in the indicated assays at 10 uM. N=4-6 from two different experiments. […] C) SR11466 is efficacious at inhibiting IL-6 secretion from A549 cells. C-E). […] D) Mitochondrial activity was measured in myoblasts using high content imaging with mitotracker dye after 24 treatment. New amino acid incorporation was measured with LICOR in cell western for puromycin (SunSet assay). E) top, MMTV-luciferase reporter data. N=3, mean+SEM. Bottom, Mineralization of primary human OBs was assayed after two weeks of differentiation from MSC and two weeks of mineralization. N=4, mean+SEM, 2-way ANOVA.
(§2) Physiologically, the effects of GCs on protein balance and Glut4 translocation vary in vivo depending upon the stressor. For example, GCs mediate atrophy in response to fasting but not exercise. […] To assess protein degradation, we measured chymotrypsin-like proteasomal activity (FIG. 2, A). The activating phosphorylation of AKT at Thr308 (pAKT) was measured using a LI-COR In-Cell Western assay (FIG. 2, B and C). The rate-limiting step in insulin-mediated glucose uptake is the translocation of the glucose transporter, Glut4, to the surface membrane, which we also measured by In-Cell Western without permeabilizing the myotubes (FIG. 2, D). Surface Sensing of Translation (SUnSET) (Schmidt et al., Nat Methods 6, 275-277, 2009) assay was used to measure protein synthesis by In-Cell Western, following treatment of myotubes with a low dose of puromycin, which incorporates into translating proteins, but at a low enough level to provide a readout for global protein synthesis (FIG. 2, E). Lastly, we developed a high-content imaging assay in myoblasts stained with a MitoTracker dye, so that individual mitochondrial networks could be visualized with adequate resolution to quantitate area, segmentation, branching, and fluorescence intensity which is a measure of mitochondrial membrane potential (ψm).

[1] = Loss of lean mass after a larger dose of LPS (whole-body NMR); assay type: in vivo, C57BL/6 male mice; settings: additional 18 h LPS treatment
From the text: A) Correlation of correlation (COC) plots where each point represents the Pearson correlation coefficient, r, between a distinct gene expression or GR-peptide interaction assay with assays indicated on the x and y axes. B) The effects of all tested compounds on IL-1β-induced secretion of IL-6 (y axes) and GC-regulated phenotypes indicated on the x axes. C) The effects of all tested compounds on IL-1β-induced secretion of IL-6 (y axis) and bone mineralization (x axis). D) IL-1β-induced IL-6 production by A549 cells treated with 10 μM of the indicated compounds was compared by AlphaLISA. E-H) Myoblasts were assayed as described in FIG. 8. I) Representative myoblasts imaged during the mitochondrial potential assay. J) Plasma TNFα levels of C57BL/6 male mice treated pretreated with the indicated ligands. K) Changes in lean mass of mice in panel J were determined by whole-body NMR after an additional 18 h LPS treatment. Data shown are mean+SEM.

[2] = Lactate-tolerance test (rate of glucose production); assay type: in vivo, C57BL/6 male mice; settings: after overnight fast; 10 mg/kg Dex or SR16024, 50 mg/kg SR11466
From the text: A) The effects of all tested compounds on IL-1β-induced IL-6 production (x-axes) versus GR interaction with the indicated peptides. B-C) The effects of all tested compounds on the indicated GC-regulated phenotypes (x-axes) versus GR interaction with the CHD9_1023 and CENPR_1 peptides (y-axes). D-F) COC plots. Each point represents the Pearson correlation coefficient, r, between a distinct gene expression or GR-peptide interaction assay with assays indicated on the x and y axes. G) The effects of all tested compounds on IL-1β-induced IL-6 production (y-axes) versus insulin-induced protein synthesis. […] IL-β-induced IL-6 production by A549 cells treated with the indicated compounds was compared by AlphaLISA. […] Mice in panel K were subjected to a lactate-tolerance test (LTT).
We were also interested in whether the compounds would show dissociation between Glut4 translocation in skeletal muscle and gluconeogenesis in the liver, but enhanced glucose production is typically studied after weeks or months of GC treatment. However, we reasoned that an overnight fast should enable detection of effects after a single dose. […] Thus, profiling effects of GCs in the physiological context of nutrient deprivation allowed the discovery of two new types of glucocorticoids with improved profiles in skeletal muscle.

[3] = Pharmacokinetics for in vivo dosing
[4] = tested on: IL-1β-induced IL-6 secretion by A549 lung cells; experiment: IL-1β-induced IL-6 secretion by A549 lung cells (AlphaLISA); assay type: cell-based
L6 myotubes = experiment: Glut4 translocation to the myotube surface (In-Cell Western); assay type: cell-based, rat
Experimental: as §1
C2C12 myocytes were used in all assays, except in the Glut4 translocation assay where L6 rat myocytes were used. ICW, In-Cell Western. Also see Methods.
as §2

Row | SMILES | effect on mitochondrial activity / potential (C2C12 myoblasts) | loss of lean mass following a larger dose of LPS [1] | rate of glucose production in lactate tolerance test [2] | pharmacokinetics for in vivo dosing [3] | inhibition of IL-6 production in combination with RU486 ([4]; A549 cells, with RU486) | IC50 ([4]; A549 lung cells, read-out: potency for inhibiting IL-1β-induced IL-6 secretion) | effect on Glut4 translocation (L6 myotubes)
1 | C=CCOC1CC2(C)C(CCC2(O)C#CC)C2CCc3cc(C(=O)Nc4cccnc4C)ccc3C12 (stereo not shown) [SR11466] | enhanced | significantly better than Dex | increased the rate of glucose production | favorable pharmacokinetics | reversed by RU486 | 4 nM | –
2 | CC#CC1(O)CCC2C3CCc4cc(C(=O)Nc5cccnc5C)ccc4C3C(OCc3ccccc3Cl)CC21C (stereo not shown) [SR16024] | enhanced; also recorded: doubling; also recorded: anabolic profile in mitochondria | protective | – | favorable pharmacokinetics | – | – | no inhibition
